This note sets out measurements from US4089965A, “Thiazolylphenylguanidines as antirhinovirus agents” (American Cyanamid Company, priority 1977, dated 1978).

One experiment has as its system rhinovirus 32. The format is in vivo, human. The following applies: neutralization test, rhinovirus type 32.
A further experiment relates to Rhinovirus strain 2. The experiment in a line: Protection of tissue from cytopathic effects (plaque inhibition, filter paper disc or agar overlay). The following applies: 33°, 3 to 5 days.
The next experiment deals with Rhinovirus strain 14. The experiment is described as above. The note with it: 33°, 3 to 5 days.
For another experiment, the system named is Rhinovirus Serotype 1B. The experiment in a line: Plaque assay, minimal inhibitory concentration. The format is cell-based. The note with it: Enterovirus, inhibiting virus plaque formation by 50%.
In a further experiment the test system is Rhinovirus Serotype 20. The experiment in a line: Plaque assay, minimal inhibitory concentration. The format is cell-based. The note with it: Enterovirus; HeLa Cells; inhibiting virus plaque formation by 50%.

Usually IC50 stands for the concentration that inhibits the measured activity by half. The low end stands for higher potency, the high end for lower potency.

≈ marks a conversion by molar mass, not a printed value.

`N=C(Nc1ccccc1)Nc1nc(-c2ccccc2)cs1` [1-(4-phenyl-2-thiazolyl)-3-phenylguanidine]: in the experiment with rhinovirus 32, the “antibody response of the treated subject who became clinically infected” value is “no antibody response”. Moreover, the “Protection of tissue from destruction by virus” value in the experiment with Rhinovirus strain 2 and in the experiment with Rhinovirus strain 14 was “+” throughout. The IC50 in the experiment with Rhinovirus Serotype 1B (L132, L-132 Cells) was 0.8 µg/mL (≈ 2.72 µM); in the experiment with Rhinovirus Serotype 1B (HeLa Cells) it was 0.8 to 1.6 µg/mL (≈ 2.72 to 5.44 µM); in the experiment on Rhinovirus Serotype 20, 0.4 µg/mL (≈ 1.36 µM).
